Data published in ChEMBL document CHEMBL6087385, “Synthesis and biological evaluation of Ribo 7-N/O/S pyrimidine 9-deaza C-nucleoside analogs as new antiviral agents for inhibiting HCV RNA-dependent RNA polymerases” (Eur J Med Chem, 2024).

Legend:
[1] = Drug concentration in Sprague-Dawley rat liver at 2 mg/kg, iv measured upto 24 hrs in presence of ATP by LC-MS/MS analysis; type: ADME, organism-based; conditions: read-out: Ct
[2] = AUC (0 to infinity) in female mouse at 1 mg/kg, iv by reverse phase chromatography; type: ADME, organism-based; conditions: in vivo
[3] = Metabolic stability in cryopreserved dog hepatocyte assessed as half life in presence of NADPH; type: ADME, cell-based, Canis lupus familiaris; conditions: cryopreserved hepatocytes
[4] = Toxicity in Sprague-Dawley rat assessed as eyes and nares staining at 250 mg/kg, po administered as single dose and measured after 14 days; type: organism-based; conditions: in vivo, 336 h, time 14 day
[5] = Half life in female mouse at 1 mg/kg, iv by reverse phase chromatography; type: ADME, organism-based; conditions: in vivo
[6] = biological target: hERG potassium channel (KCNH2) (Homo sapiens, UniProt Q12809); assay: Inhibition of hERG potassium channel expressed in HEK cells at 100 uM relative to control; type: toxicity, cell-based; conditions: HEK cells expressing hERG
[7] = Toxicity in Sprague-Dawley rat assessed as weight loss at 100 mg/kg, po administered as single dose and measured after 14 days; type: organism-based; conditions: in vivo, 336 h, time 14 day
Hepatitis C virus [8] = assay: Antiviral activity against HCV genotype 1a infected in GLuc-1 cells; type: functional, organism-based, Hepacivirus hominis
[9] = Oral bioavailability in Sprague-Dawley rat at 5 mg/kg by reverse phase chromatography; type: ADME, organism-based; conditions: in vivo
[10] = Clearance in Cynomolgus monkey at 1 mg/kg, iv by reverse phase chromatography; type: ADME, organism-based, Macaca fascicularis; conditions: in vivo
[11] = Half life in Cynomolgus monkey at 1 mg/kg, iv by reverse phase chromatography; type: ADME, organism-based, Macaca fascicularis; conditions: in vivo
[12] = Metabolic stability in human liver microsome assessed as half life in presence of NADPH; type: ADME; conditions: liver microsomes
[13] = AUC in female mouse at 1 mg/kg, iv by reverse phase chromatography; type: ADME, organism-based; conditions: in vivo
[14] = Toxicity in Sprague-Dawley rat assessed as eyes and nares staining at 100 mg/kg, po administered as single dose and measured after 14 days; type: organism-based; conditions: in vivo, 336 h, time 14 day
[15] = Metabolic stability in rat liver microsome assessed as half life in presence of NADPH; type: ADME; conditions: liver microsomes
[16] = AUC in Sprague-Dawley rat at 10 mg/kg, po by reverse phase chromatography; type: ADME, organism-based; conditions: in vivo
[17] = Toxicity in Sprague-Dawley rat assessed as animal death at 90 to 250 mg/kg, po administered as single dose and measured after 14 days; type: organism-based; conditions: in vivo, 336 h, dose 90-250 mg/kg, time 14 day
[18] = Cmax in Sprague-Dawley rat at 5 mg/kg, po by reverse phase chromatography; type: ADME, organism-based; conditions: in vivo
[19] = Genotoxicity in mouse L5178Y cells assessed as increase in forward mutation at thymidine kinase locus measured after 4 hrs; type: toxicity, cell-based
[20] = Toxicity in rat assessed as effect on respiratory measures at 1 to 9 mg/kg, po; type: organism-based; conditions: in vivo, dose 1-9 mg/kg
[21] = Toxicity in rat assessed as effect on clinical observations at 1 to 9 mg/kg, po; type: organism-based; conditions: in vivo, dose 1-9 mg/kg
[22] = Genotoxicity in CD-1(ICR)BR mouse assessed as effect on bone marrow cells at 2000 mg/kg, po by micronucleus assay; type: toxicity, organism-based; conditions: in vivo
[23] = Tmax in female mouse at 1 mg/kg, iv by reverse phase chromatography; type: ADME, organism-based; conditions: in vivo
[24] = Cmax in female mouse at 5 mg/kg, po by reverse phase chromatography; type: ADME, organism-based; conditions: in vivo
[25] = Toxicity in Sprague-Dawley rat assessed as macroscopic examination at necroscopy at 100 mg/kg, po administered as single dose and measured after 14 days; type: organism-based; conditions: in vivo, 336 h, time 14 day
[26] = Genotoxicity in mouse L5178Y cells assessed as increase in forward mutation at thymidine kinase locus; type: toxicity, cell-based
[27] = Half life in Sprague-Dawley rat at 10 mg/kg, po by reverse phase chromatography; type: ADME, organism-based; conditions: in vivo
[28] = Toxicity in Sprague-Dawley rat assessed as diarrhea at 100 mg/kg, po administered as single dose and measured after 14 days; type: organism-based; conditions: in vivo, 336 h, time 14 day
[29] = Half life in Cynomolgus monkey at 10 mg/kg, po administered for 7 days by reverse phase chromatography; type: ADME, organism-based, Macaca fascicularis; conditions: in vivo, time 7 day
[30] = Oral bioavailability in Sprague-Dawley rat at 10 mg/kg by reverse phase chromatography; type: ADME, organism-based; conditions: in vivo
[31] = AUC (0 to infinity) in Sprague-Dawley rat at 10 mg/kg, po by reverse phase chromatography; type: ADME, organism-based; conditions: in vivo
[32] = Toxicity in Sprague-Dawley rat assessed as anogenital staining at 250 mg/kg, po administered as single dose and measured after 14 days; type: organism-based; conditions: in vivo, 336 h, time 14 day
[33] = Drug absorption in human Caco-2 cells; type: ADME, cell-based
[34] = Metabolic stability in dog liver microsome assessed as half life in presence of NADPH; type: ADME, Canis lupus familiaris; conditions: liver microsomes
Hepatitis C virus [35] = assay: Anti-viral activity against HCV genotype 2a infected in Lunet-CD81 cells; type: functional, organism-based, Hepacivirus hominis
Hepatitis C virus [36] = assay: Antiviral activity against Hepatitis C virus infected in Ava5 cells assessed as inhibition of viral RNA replication incubated for 72 hrs by RT-PCR analysis; type: functional, organism-based, Hepacivirus hominis; conditions: Ava5, 72 h
[37] = Toxicity in Sprague-Dawley rat assessed as anogenital staining at 90 mg/kg, po administered as single dose and measured after 14 days; type: organism-based; conditions: in vivo, 336 h, time 14 day
[38] = Toxicity in Cynomolgus monkey assessed as animal death at 100 to 500 mg/kg, po administered as single dose; type: organism-based, Macaca fascicularis; conditions: in vivo, dose 100-500 mg/kg
[39] = Toxicity in Cynomolgus monkey assessed as emesis at 100 mg/kg, po administered twice a day; type: organism-based, Macaca fascicularis; conditions: in vivo
[40] = AUC in Sprague-Dawley rat at 5 mg/kg, po by reverse phase chromatography; type: ADME, organism-based; conditions: in vivo
[41] = Cmax in female mouse at 1 mg/kg, iv by reverse phase chromatography; type: ADME, organism-based; conditions: in vivo
[42] = Toxicity in Sprague-Dawley rat assessed as eyes and nares staining at 90 mg/kg, po administered as single dose and measured after 14 days; type: organism-based; conditions: in vivo, 336 h, time 14 day
[43] = Toxicity in Sprague-Dawley rat assessed as piloerection at 90 mg/kg, po administered as single dose and measured after 14 days; type: organism-based; conditions: in vivo, 336 h, time 14 day
[44] = Tmax in Sprague-Dawley rat at 5 mg/kg, po by reverse phase chromatography; type: ADME, organism-based; conditions: in vivo
[45] = Toxicity in rat assessed as mortality at 1 to 9 mg/kg, po; type: organism-based; conditions: in vivo, dose 1-9 mg/kg
[46] = Oral bioavailability in mouse at 5 mg/kg by reverse phase chromatography; type: ADME, organism-based; conditions: in vivo
[47] = Cmax in Sprague-Dawley rat at 1 mg/kg, iv by reverse phase chromatography; type: ADME, organism-based; conditions: in vivo
[48] = Toxicity in Sprague-Dawley rat assessed as lethargy at 150 mg/kg, po administered as single dose and measured after 14 days; type: organism-based; conditions: in vivo, 336 h, time 14 day
[49] = AUC (0 to infinity) in Cynomolgus monkey at 10 mg/kg, po administered for 7 days by reverse phase chromatography; type: ADME, organism-based, Macaca fascicularis; conditions: in vivo, time 7 day
[50] = Half life in female mouse at 5 mg/kg, po by reverse phase chromatography; type: ADME, organism-based; conditions: in vivo
[51] = Toxicity in rat assessed as change in body weight at 1 to 9 mg/kg, po; type: organism-based; conditions: in vivo, dose 1-9 mg/kg
[52] = Toxicity in po dosed rat assessed as no observable adverse effect level; type: organism-based; conditions: in vivo

Sequence of hERG potassium channel (KCNH2) (Q12809 whole entry): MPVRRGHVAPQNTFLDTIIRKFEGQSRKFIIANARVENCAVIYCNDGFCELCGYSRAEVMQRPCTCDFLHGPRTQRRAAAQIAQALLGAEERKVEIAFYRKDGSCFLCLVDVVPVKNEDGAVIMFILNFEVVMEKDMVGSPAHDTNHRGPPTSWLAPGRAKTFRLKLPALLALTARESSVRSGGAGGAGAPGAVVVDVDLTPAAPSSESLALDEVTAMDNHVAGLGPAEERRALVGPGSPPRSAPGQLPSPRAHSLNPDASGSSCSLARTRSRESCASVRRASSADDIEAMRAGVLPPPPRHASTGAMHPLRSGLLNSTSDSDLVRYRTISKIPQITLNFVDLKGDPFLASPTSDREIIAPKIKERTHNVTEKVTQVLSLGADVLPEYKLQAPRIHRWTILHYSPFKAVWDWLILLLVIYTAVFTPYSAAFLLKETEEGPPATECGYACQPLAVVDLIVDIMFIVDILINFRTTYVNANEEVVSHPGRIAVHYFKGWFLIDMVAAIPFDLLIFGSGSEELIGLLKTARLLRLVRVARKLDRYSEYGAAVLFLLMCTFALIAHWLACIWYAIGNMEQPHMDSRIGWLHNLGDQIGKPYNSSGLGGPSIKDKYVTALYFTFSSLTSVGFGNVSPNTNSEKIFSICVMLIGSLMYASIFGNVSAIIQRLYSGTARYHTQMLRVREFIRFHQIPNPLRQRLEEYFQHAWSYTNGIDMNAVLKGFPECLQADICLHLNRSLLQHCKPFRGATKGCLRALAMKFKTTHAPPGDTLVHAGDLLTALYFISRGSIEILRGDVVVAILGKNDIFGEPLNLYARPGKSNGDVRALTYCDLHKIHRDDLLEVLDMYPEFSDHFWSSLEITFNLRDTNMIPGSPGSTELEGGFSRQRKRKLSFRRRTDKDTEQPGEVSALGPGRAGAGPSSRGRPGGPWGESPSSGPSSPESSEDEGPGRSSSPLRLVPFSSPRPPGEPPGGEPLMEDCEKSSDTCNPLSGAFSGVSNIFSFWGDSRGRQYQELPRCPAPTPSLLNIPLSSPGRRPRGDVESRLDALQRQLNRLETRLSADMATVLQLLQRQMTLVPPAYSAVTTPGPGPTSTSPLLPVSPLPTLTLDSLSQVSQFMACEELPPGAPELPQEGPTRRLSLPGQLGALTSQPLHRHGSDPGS

C[C@@]1(O)[C@H](O)[C@@H](CO)O[C@H]1c1coc2c(N)ncnc12
concentration at 24 h [1]: 420 nM | AUC(0-inf) [2]: 1440 ng·h/mL | half-life [3]: > 1 h | Activity [4]: Non-toxic | half-life [5]: 22.3 h | inhibition at 100 µM [6]: 1.3% | Activity [7]: Non-toxic | EC50 (Hepatitis C virus [8]): 5.4 µM | bioavailability [9]: 55% | clearance [10]: 8.56 mL/min/kg | half-life [11]: 24 h | half-life [12]: > 1.67 h | AUC [13]: 866 ng·h/mL | Activity [14]: Non-toxic | half-life [15]: > 1.67 h | AUC [16]: 4980 ng·h/mL | Activity [17]: Non-toxic | Cmax [18]: 593 ng/mL | Activity [19]: Toxic | Activity [20]: Non-toxic | Activity [21]: Non-toxic | Activity [22]: Toxic | Tmax [23]: 4.98 min | Cmax [24]: 1060 ng/mL | Activity [25]: Non-toxic | Activity [26]: Non-toxic | half-life [27]: 8.86 h | Activity [28]: Non-toxic | half-life [29]: 26.3 h | bioavailability [30]: 71.2% | AUC(0-inf) [31]: 5650 ng·h/mL | Activity [32]: Non-toxic | Drug absorption [33]: Not_active | half-life [34]: > 1.67 h | EC50 (Hepatitis C virus [35]): > 50 µM | EC50 (Hepatitis C virus [36]): 6.5 µM | Activity [37]: Non-toxic | Activity [38]: Non-toxic | Activity [39]: Non-toxic | AUC [40]: 1920 ng·h/mL | Cmax [41]: 1130 ng/mL | Activity [42]: Non-toxic | Activity [43]: Non-toxic | Tmax [44]: 0.5 h | Activity [45]: Non-toxic | bioavailability [46]: 75% | Cmax [47]: 1150 ng/mL | Activity [48]: Toxic | AUC(0-inf) [49]: 8010 ng·h/mL | half-life [50]: 16.6 h | Activity [51]: Non-toxic | NOAEL [52]: ≤ 9 mg/kg
